pEC50: −log10 of the molar value.
Legend:
[1] = biological target: T1, hα7-wt nAChR (Homo sapiens, UniProt P36544); assay: Whole-cell voltage-clamp recording, PAM type classification; type: cell-based; design: key: Type 1 compounds enhance the effect size of the current elicited by 1 mM choline but minimally alter the kinetics of the receptor.; Type 2 compounds enhance the effect size of the current elicited by 1 mM choline while reducing the rate and/or the extent of desensitization.; Type 3 compounds enhance the effect size of the current elicited by 1 mM choline. When tested at higher concentrations up to 10 μM they completely inhibit desensitization, in particular a 1 mM choline application of 250 milliseconds.; Type 4 compounds allow for an initial desensitization of the receptor followed by a re-opening of the receptor during agonist application; conditions: qualitative kinetic properties; 1 mM choline; hα7-wt nAChR-expressing GH4C1 cells
T1 construct: expressed in transfected cells; host or cells: GH4C1 cells (recombinant, stably over-expressing)
Protocol: The compounds of the present invention are classified as type 1-4, based on qualitative kinetic properties, as determined by whole-cell voltage-clamp recordings. This classification is based on the effect of an α7 PAM compound, as described hereinbefore, on the signal elicited by an agonist application. In particular, said agonist is choline at a concentration of 1 mM. In a preferred experimental setting, said α7 PAM compound and choline are simultaneously applied to the cell, as described hereinafter. Desensitization is defined as the closure of the receptor upon activation during the application of the agonist in whole-cell voltage-clamp electrophysiology measurements seen as the reduction of the […] current after initial activation by the agonist.
The definition of the PAM types 1-4 is described hereinafter: • Type 1 compounds enhance the effect size of the current elicited by 1 mM choline but minimally alter the kinetics of the receptor. In particular, the rate and the extent of desensitization, elicited by the agonist, is not affected. The compound-modulated response to 1 mM choline, therefore, is a close to linear scaling of the 1 mM choline response in absence of the α7 PAM compound. • Type 2 compounds enhance the effect size of the current elicited by 1 mM choline while reducing the rate and/or the extent of desensitization. • Type 3 compounds enhance the effect size of the current elicited by 1 mM choline. […] At low-potency concentrations of the α7 PAM compound, the agonist-induced activation, which is followed by desensitization, can still be separated from the compound-induced re-opening as an initial inward current-maximum. At higher potency concentrations of the α7 PAM compound, the re-opening occurs faster than the closure due to desensitization so that the initial current-maximum disappears.
The compounds of the present invention also have a potentiating effect on the response to choline when measured by whole-cell voltage-clamp electrophysiology in GH4C1 cells stably over-expressing the human wild-type α7 receptor, as described hereinafter.
Whole-Cell Voltage-Clamp Recording
Whole-cell voltage-clamp recording from mammalian cells has provided a powerful means of assessing the function of membrane proteins thought to be subunits of ligand-gated ion channels. Activation of such proteins by endogenous or exogenous ligands causes opening of a pore associated with the receptor through which ions flow down their electrochemical gradient. In the case of the hα7-wt nAChR-expressing GH4C1 recombinant cell line the preferential permeability to calcium of this receptor means that calcium flows into the cell upon activation by ACh, choline and other nicotinic ligands giving rise to a calcium current. Since this receptor rapidly desensitizes in the presence of an agonist it is important that an application system is used which is capable of very rapid switching of solutions (<100 ms) to prevent partial or full desensitisation of receptor responses coincident with the time of agonist application. Consequently, a second convenient technique to assess the enhancement of nicotinic efficacy is whole-cell voltage-clamp recording from hα7-wt nAChR-expressing GH4C1 cells coupled with a rapid-application system.
• The external recording solution consisted of 152 mM NaCl, 5 mM KCl, 1 mM MgCl2, 1 mM Calcium, 10 mM HEPES; pH 7.3. The internal recording solution consisted of 140 mM CsCl, 10 mM HEPES, 10 mM EGTA, 1 mM MgCl2, pH 7.3. • b) Patch-clamp recording was carried out using a Patch-clamp amplifier (Multiclamp 700A, Axon Instruments, CA, USA). The membrane potential of hα7-wt nAChR-expressing GH4C1 cells was voltage-clamped in the whole cell configuration (Hamill et al, 1981) with a borosilicate glass electrode of 1.5-3 MΩ tip resistance when filled with the internal recording solution. […]

[2] = biological target: T1, hα7-wt nAChR; assay: Ca2+ flux imaging (FDSS), potentiation of choline response; type: cell-based; conditions: for pEC50: hα7-wt nAChR-expressing GH4C1 cells, potentiation of 100 μM choline, compounds 0.01 μM to 30 μM
Protocol: Ca^2+ Flux Imaging (FDSS)
• Hanks buffered saline solution (HBSS, Invitrogen, Belgium), supplemented with 10 mM HEPES (Invitrogen, Belgium), CaCl2 to a final concentration of 5 mM, 0.1% Bovine serum albumin (Sigma-Aldrich NV, Belgium). b) Calcium-Sensitive Dye—Fluo-4AM • Fluo-4AM (Molecular Probes, USA) was dissolved in DMSO containing 10% Pluronic acid (Molecular Probes, USA) to give a stock solution which was diluted in assay buffer supplemented with 5 mM probenicid (Sigma, Aldrich NV, Belgium) to give a final concentration of 2 μM. c) 384-Well Plates • Black 384 well plate black/clear plates, PDL pre-coated (Corning, Incorporated, USA) d) Calcium Flux Measurement • A Functional drug screening system (FDSS, Hamamatsu) was used to measure intracellular free-calcium flux signals. Method
Monolayers of hα7-wt nAChR-expressing GH4C1 cells were grown in multi-well plates, in particular black-sided, transparent bottomed 384 well plates coated with poly-D-lysine for 24 hours prior to loading with a fluorescent calcium indicator, in a particular embodiment loading with fluo-4AM for up to 120 minutes.
PAM activity was detected in real time by applying the compound to be tested to the loaded cells along with a α7 nicotinic receptor agonist during constant monitoring of the cellular calcium mobilization by fluorescence in a FDSS. Compounds giving peak fluorescent responses greater than the response due to agonist alone, were considered to be α7 nAChR PAM's. In a particular embodiment, the α7 nicotinic receptor agonist was choline, a more particular embodiment choline applied at a sub-maximal concentration of 100 μM. In a further setting of the present invention the compounds to be tested were applied prior to the α7 nicotinic receptor agonist, in a particular embodiment up to 10 minutes prior to the agonist.
A control response to choline was calculated on each plate from the difference in peak in fluorescence in wells receiving either choline or assay buffer alone. Compounds of the present invention were tested at a concentration range from 0.01 μM to 30 μM. Compounds were considered to have an interesting activity when they potentiated the choline signal at least with 200% when tested at a concentration of 30 μM (the efficacy of 100 μM choline was defined as 100% in the absence of a PAM).
EC50 values (potency), maximal effect (% efficacy), and Hill slopes were estimated by fitting the sigmoidal equation to the data using GraphPad Prism (GraphPad Software, Inc., San Diego, Calif.). An EC50 (or pEC50) was determined as a concentration relating to half the maximal effect, when a clear sigmoidal curve with top plateau was obtained.

T1 sequence (P36544 23-502): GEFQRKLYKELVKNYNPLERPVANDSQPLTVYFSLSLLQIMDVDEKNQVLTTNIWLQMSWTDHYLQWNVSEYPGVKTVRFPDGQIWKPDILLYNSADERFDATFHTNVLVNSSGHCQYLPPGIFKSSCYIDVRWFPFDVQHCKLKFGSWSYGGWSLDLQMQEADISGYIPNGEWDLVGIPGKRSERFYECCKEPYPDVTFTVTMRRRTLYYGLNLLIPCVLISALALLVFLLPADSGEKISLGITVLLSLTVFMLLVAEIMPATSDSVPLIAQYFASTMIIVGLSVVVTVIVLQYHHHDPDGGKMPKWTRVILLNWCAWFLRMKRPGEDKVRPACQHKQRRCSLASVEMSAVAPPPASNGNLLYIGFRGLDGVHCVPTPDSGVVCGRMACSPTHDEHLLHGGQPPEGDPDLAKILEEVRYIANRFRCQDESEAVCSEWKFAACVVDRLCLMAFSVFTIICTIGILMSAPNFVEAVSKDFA

| SMILES | pEC50 [2] | melting point | Emax ([2]; GH4-C1, maximal effect, efficacy of 100 μM choline defined as 100% in the absence of a PAM, GH4C1 cells) | PAM_type [1] |
| --- | --- | --- | --- | --- |
| CCC(O)Cn1nc(Nc2ccc(F)c(F)c2)nc1-c1ccnc(NCCOC)c1 (stereo not shown) [Compound E9] | 6.03 | 137.06 °C | 1000% | 2 |
| CCC(O)Cn1nc(Nc2cccc(Cl)c2)nc1-c1ccnc(C)c1 (stereo not shown) [Compound E17] | 5.92 | 144.31 °C | – | 2 |
| CC[C@H](O)Cn1nc(Nc2ccc(F)c(C)c2)nc1-c1ccnc(C)c1 [Compound E19, (S)-1-[3-(4-Fluoro-3-methyl-phenylamino)-5-(2-methyl-pyridin-4-yl)-[1,2,4]triazol-1-yl]-butan-2-ol] | 5.71 | 133.85 °C | – | 2 |
| CCNc1cc(-c2nc(Nc3cccc(Cl)c3)nn2C[C@H](O)CC)ccn1 [Compound E29, (R)-1-[3-(3-chloro-phenylamino)-5-(2-ethylamino-pyridin-4-yl)-[1,2,4]triazol-1-yl]-butan-2-ol] | 5.99 | 158.66 °C | – | 1 |

Molecules with a higher pEC50 [2], results first:

| pEC50 [2] | melting point | Emax ([2]; GH4-C1, maximal effect, efficacy of 100 μM choline defined as 100% in the absence of a PAM, GH4C1 cells) | SMILES | PAM_type [1] |
| --- | --- | --- | --- | --- |
| 6.16 | 156.18 °C | – | CCNc1cc(-c2nc(Nc3ccc(F)c(F)c3)nn2CC(O)CC)ccn1 (stereo not shown) [Compound E25] | 1 |
| 6.23 | 166.04 °C | – | CC[C@H](O)Cn1nc(Nc2ccc(F)c(F)c2)nc1-c1cc(C)nc(C)c1 [Compound E1, (S)-1-[3-(3,4-Difluoro-phenylamino)-5-(2,6-dimethyl-pyridin-4-yl)-[1,2,4]triazol-1-yl]-butan-2-ol] | 2 |
| 6.45 | 161.99 °C | – | CCNc1cc(-c2nc(Nc3cccc(Cl)c3)nn2C[C@@H](O)CC)ccn1 [Compound E2, (S)-1-[3-(3-Chloro-phenylamino)-5-(2-ethylamino-pyridin-4-yl)-[1,2,4]triazol-1-yl]-butan-2-ol] | 2 |
| 6.69 | 135 °C | – | CCCCC(O)Cn1nc(Nc2ccc(F)c(F)c2)nc1-c1cc(C)nc(C)c1 (single isomer, unassigned; (+)) [Compound E5, (+)-1-[3-(3,4-Difluoro-phenylamino)-5-(2,6-dimethyl-pyridin-4-yl)-[1,2,4]triazol-1-yl]-hexan-2-ol] | 2 |
| 6.70 | 166.05 °C | – | CC[C@H](O)Cn1nc(Nc2cc(OC)cc(C(F)(F)F)c2)nc1-c1cc(C)nc(C)c1 [Compound E30, (S)-1-[5-(2,6-Dimethyl-pyridin-4-yl)-3-(3-methoxy-5-trifluoromethyl-phenylamino)-[1,2,4]triazol-1-yl]-butan-2-ol] | 2 |
